Data from publication PMC6327044, “A chemical biology screen identifies a vulnerability of neuroendocrine cancer cells to SQLE inhibition” (Nature Communications, 2019).

Key:
Assay in all cases: cells
Parameters in all cases: species or system panel of 482 human cancer cell lines; ATPLite luminescence growth inhibition after treatment, nine-point dilution curve, 482 cancer cell lines, 384-well
Conditions in all cases: 72 h, recommended growth medium
TT_OESOPHAGUS = system: TT_OESOPHAGUS
Procedure: (§1) Cells were seeded in recommended growth media in black 384-well tissue culture treated plates at 500 cells per well. Cells were equilibrated in assay plates via centrifugation and placed in incubators for 24 h before treatment. […] Treated assay plates were incubated with compounds for 72 h and subsequently were developed for endpoint analysis using ATPLite. Each compound was assessed using a nine-point dilution curve. Cells were defined as sensitive to a given compound based on GI75 < 2 μM with manual quality control of curve fit. GI75 is defined as a drug concentration that causes a 75% reduction in assay readout relative to dimethyl sulfoxide (DMSO)-treated controls. To identify novel cancer vulnerabilities, we screened a panel of 482 cell lines with a diverse set of metabolic inhibitors. […] Given that SCLC is thought to arise from neuroendocrine cells in the lung[9], we tested the NB-598 sensitivity in a panel of 42 SCLC cell lines. We calculated a quantitative metric of sensitivity for each cell line based on the area under the curve (AUC) of the mu/mu.max curve to more accurately capture the potency and extent of NB-598 effects. […] We categorized the SCLC cell lines as sensitive (5/42), moderate (11/42), and insensitive (26/42) (Fig. 1c and Supplementary Data 2) and focused all subsequent efforts on this indication. […] To further understand the patterns of sensitivity, we conducted RNA sequencing (RNA-Seq; Supplementary Data 3) and proteomic (Supplementary Data 4) characterization of the SCLC panel to identify unbiased expression signatures associated with enhanced NB-598 response (Supplementary Fig. 1 and Supplementary Fig. 2). Given the growing understanding that SCLC tumors can be further subdivided based on the status of lineage-defining transcription factors, ASLC1 and NEUROD1, we specifically investigated NB-598 response as the function of ASCL1 and NEUROD1 expression levels. […] To further dissect the NB-598 response within the ASCL1-high/NEUROD-low subset of 25 cell lines, we identified RNA-Seq and proteomics expression signatures associated with NB

[1] = system: KPNRTBM1_AUTONOMIC_GANGLIA
Procedure: as §1

KYSE520_OESOPHAGUS = system: KYSE520_OESOPHAGUS
Procedure: as §1

NCIH1836_LUNG = system: NCIH1836_LUNG
Procedure: as §1

[2] = system: SNU1066_UPPER_AERODIGESTIVE_TRACT
Procedure: as §1

[3] = system: SUDHL4_HAEMATOPOIETIC_AND_LYMPHOID_TISSUE
Procedure: as §1

[4] = system: OCILY8_HAEMATOPOIETIC_AND_LYMPHOID_TISSUE
Procedure: as §1

[5] = system: KMS20_HAEMATOPOIETIC_AND_LYMPHOID_TISSUE
Procedure: as §1

NCIH1048_LUNG = system: NCIH1048_LUNG
Procedure: as §1

HCC1500_BREAST = system: HCC1500_BREAST
Procedure: as §1

SW1116_LARGE_INTESTINE = system: SW1116_LARGE_INTESTINE
Procedure: as §1

SKBR3_BREAST = system: SKBR3_BREAST
Procedure: as §1

SNU308_BILIARY_TRACT = system: SNU308_BILIARY_TRACT
Procedure: as §1

IM95_STOMACH = system: IM95_STOMACH
Procedure: as §1

[6] = system: U2932_HAEMATOPOIETIC_AND_LYMPHOID_TISSUE
Procedure: as §1

HCC70_BREAST = system: HCC70_BREAST
Procedure: as §1

GI50 [2]: 121 µM | GI50 [3]: 10.6 µM | GI50 (HCC1500_BREAST): 1.48 µM | GI50 (SW1116_LARGE_INTESTINE): 19.1 µM | GI50 (SKBR3_BREAST): 7.19 µM | GI50 (SNU308_BILIARY_TRACT): 2.92 µM
SMILES: CCN(C/C=C/C#CC(C)(C)C)Cc1cccc(OCc2cc(-c3ccsc3)cs2)c1 [NB-598]
GI50 (TT_OESOPHAGUS): 0.296 µM | GI50 [1]: 3.49 µM | GI50 (KYSE520_OESOPHAGUS): 45.5 µM | GI50 (NCIH1836_LUNG): 0.0147 µM | GI50 [4]: 9.19 µM | GI50 [5]: 6.54 µM | GI50 (NCIH1048_LUNG): 9.06 µM | GI50 (IM95_STOMACH): 0.0118 µM | GI50 [6]: 1.29 µM | GI50 (HCC70_BREAST): 16.3 µM
